Data from patent US7718578B2, “Method of synthesis and testing of combinatorial libraries using microcapsules” (Medical Research Council, priority 2003, dated 2010).

Tests used:
[1] = Compartmentalisation of small molecules in water-in-fluorocarbon emulsions (epifluorescence microscopy); format: physicochemical; settings: water-in-perfluorooctyl bromide emulsions mixed by vortexing, 24 hours after mixing
Experimental: Water-in-fluorocarbon emulsions containing 95% (v/v) perfluorooctyl bromide, 5% (v/v) phosphate buffered saline containing the molecule of interest in solution, and 2% (w/v) C8F17C11H22OP(O)[N(CH2CH2)2O]2 (F8H11DMP) as surfactant were formed essentially as (Sadtler et al., 1996) by extrusion (15 times) through 14 μm filters (Osmonics) or by homogenising for 5 min at 25,000 r.p.m. using an Ultra-Turrax T8 Homogenizer (IKA) with a 5 mm dispersing tool. Emulsions were made containing a series of small fluorescent molecules dissolved in the aqueous phase at concentrations from […] to 2 mM. These molecules, including calcein, texas red, fluorescein, coumarin 102, 7-hydroxycoumarin-3-carboxylic acid and 7-diethylamino-4-methyl coumarin (coumarin 1), had molecular weights from 203 to 625 Da and Log P values—calculated using SRC's LogKow/KowWin Program (Meylan and Howard, 1995)—ranging from −0.49 to 4.09. Emulsions containing different coloured fluorochromes were mixed by vortexing. Compartmentalisation was observed by epifluorescence microscopy of the mixed emulsions. No exchange between compartments was observed 24 hours after mixing (see FIG. 5).

[2] = target: T1, human recombinant PTP1B, residues 1-322 (Homo sapiens, UniProt P18031); experiment: Screening for PTP1B inhibitors in water-in-oil emulsion microcapsules with fluorogenic substrate DiFMUP, multi-colour flow cytometry; format: biochemical; settings: PTP1B 5 mU/ml, 37° C. for 30 min
T1 construct: human recombinant PTP1B, residues 1-322; Biomol Research Laboratories, Inc; purchased Biomol Research Laboratories, Inc
T1 sequence (P18031 1-322): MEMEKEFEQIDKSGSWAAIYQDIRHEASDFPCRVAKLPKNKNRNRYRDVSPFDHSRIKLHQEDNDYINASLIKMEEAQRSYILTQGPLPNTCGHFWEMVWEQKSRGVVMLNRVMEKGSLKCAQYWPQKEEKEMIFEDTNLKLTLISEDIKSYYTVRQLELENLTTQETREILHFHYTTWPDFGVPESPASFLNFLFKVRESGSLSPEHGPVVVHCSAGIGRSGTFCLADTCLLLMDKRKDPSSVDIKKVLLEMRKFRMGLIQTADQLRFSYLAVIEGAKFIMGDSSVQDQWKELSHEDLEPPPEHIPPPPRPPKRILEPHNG
Experimental: A solution of 1% (w/v) Span 60 and 1% (w/v) cholesterol in decane (all from Sigma Aldrich) is prepared by dissolving 80 mg of Span 60 and 80 mg of cholesterol into 7.84 ml of decane. The decane is heated to 45° C. to allow complete solubilization of the surfactant and cholesterol. The surfactant/decane solution is divided over batches of 200 μl and placed in a block-heater at 37° C.
A hand-extruding device (Mini extruder, Avanti Polar Lipids Inc, Alabaster, Ala., USA) is assembled according to the manufacturer's instructions. For extrusion, a single 19 mm Track-Etch polycarbonate filter with average pore size of 14 μm (Whatman Nuclepore, Whatman, Maidstone, UK) is fitted inside the mini extruder. Two gas-tight 1 ml Hamilton syringes (Gastight #1001, Hamilton Co, Reno, Nev., USA) are used for extrusion. […]
The two emulsions are mixed by vortexing in ratios varying from 1:1000 to 1:1 (compound 2 emulsion: hydrocinnamic acid emulsion) and incubated at 37° C. for 30 min. Inhibitors reduce the amount of non-fluorescent substrate (DiFMUP) converted to the dephosphorylated product (DiFMU; excitation/emmission maxima 358/452 nm; blue fluorescence). […]
The double emulsions are then analysed by multi-colour flow cytometery using a MoFlo (Cytomation) flow cytometer. […]

[3] = target: T1, human recombinant PTP1B, residues 1-322; experiment: Screening for PTP1B inhibition using microcapsules in microfluidic systems (DiFMUP, epifluorescence microscope); format: biochemical; settings: Example 5: 100 μM compound solution, PTP1B 50 mU/ml, microfluidic droplets in PFD carrier fluid
Experimental: Microchannels are fabricated with rectangular cross-sections using rapid prototyping in poly(dimethylsiloxane) (PDMS) (McDonald and Whitesides, 2002) and rendered hydrophobic as (Song and Ismagilov, 2003). Syringe pumps were used to drive flows (Harvard Apparatus PHD 2000 Infusion pumps). For aqueous solutions, 50 μl Hamilton Gastight syringes (1700 series, TLL) with removeable needles of 27-gaugeare used with 30-gauge Teflon tubing (Weico Wire and Cable). For the carrier fluid, 1 ml Hamilton Gastight syringes (1700 series, TLL) are used with 30-gauge Teflon needles with one hub from Hamilton (Song and Ismagilov, 2003). The carrier fluid is 9% (v/v) C6F11C2H4OH in perfluorodecaline (PFD) (Song et al., 2003). All water-soluble reagents were dissolved in (25 mM HEPES, pH 7.4, 125 mM NaCl, 1 mM EDTA), a buffer compatible with PTP1B activity.
These three steams are continuously injected into a flow of water immiscible fluorocarbon carrier fluid (9% (v/v) C6F11C2H4OH in PFD). Inlet channels for the aqeous solutions are […] wide and channel for PFD is 28 μm wide. […]
The channel immediately downstream of the point of droplet formation is winding with a peak to peak distance of 50 μm for a distance of 1 mm. […] Fluorescence of the microcapsules due to production of DiFMU (excitation/emmission maxima 358/452 nm; blue fluorescence) is measured using an epifluorescence microscope. […]

exchange between microdroplets / compartments [1]	fluorescence of microcapsules due to production of DiFMU [3]	Compound	blue fluorescence of microcapsules (dephosphorylation of DiFMUP by PTP1B) ([2]; Example 1: 100 μM compound, two emulsions mixed by vortexing)	blue fluorescence of microcapsules (dephosphorylation of DiFMUP by PTP1B) ([2]; Example 2: 100 μM compound, mixtures added sequentially while homogenising)
No exchange	–	O=C(O)CN(CC(=O)O)Cc1cc2c(cc1O)Oc1cc(O)c(CN(CC(=O)O)CC(=O)O)cc1C21OC(=O)c2ccccc21 [calcein]	–	–
–	exhibiting blue fluorescence	O=C(O)CCc1ccccc1 [hydrocinnamic acid]	blue fluorescence due to dephosphorylation of DiFMUP by PTP1B	blue fluorescence due to dephosphorylation of DiFMUP by PTP1B
No exchange	–	texas-red	–	–
